Data as given in patent publication US20240165066A1, “LYMPH-RELEASING COMPOSITIONS OF FATTY ACIDS AND USES THEREOF FOR LYMPHATIC INCORPORATION AND SYSTEMIC DISEASE TREATMENT” (Amarin Pharmaceuticals Ireland Limited, priority 2022, published 2024).

Experiments:
Assay type in all cases: cell-based
[1] = system: Human umbilical vein endothelial cells (HUVECs); assay: LC/MS proteomics of HUVECs treated with EPA or DHA and challenged with IL-6; conditions: for number of proteins whose expression was significantly repressed / number of proteins whose expression was significantly stimulated: compared with IL-6 alone
Procedure: Human umbilical vein endothelial cells (HUVECs) were isolated into primary cultures from female donors by Clonetics (San Diego, California) and purchased as proliferating cells. All cell culture donors were healthy, with no pregnancy or prenatal complications. The cultured cells were incubated in 95% air/5% CO2 at 37° C. and passaged by an enzymatic (trypsin) procedure. The confluent cells (4 to 5×10^5 cells/35 mm dish) were placed with minimum essential medium containing 3 mM L-arginine and 0.1 mM BH4 [(6R)-5,6,7,8-tetrahydrobiopterin]. Before experimental use, the cells (from second or third passage) were rinsed twice with Tyrode-HEPES buffer with 1.8 mM CaCl2).
EPA and DHA were purchased from Sigma-Aldrich (St. Louis, MO) and prepared initially in redistilled ethanol. Primary and secondary stock solutions were prepared and stored under nitrogen at −20° C.
HUVECs were treated with vehicle, EPA, or DHA (10 μM) for 2 hours, and then challenged with IL-6 (12 ng/mL) for 24 h hours. After incubation, cells were pelleted and frozen at −80° C. until proteomic analysis was performed.
Relative protein expression levels among the various treatments were measured using LC/MS proteomic techniques. Following protein digest, peptides are separated over a reverse phase column and then identified based on their mass.
Cell pellets were lysed using methanol/chloroform extraction. Proteins were denatured, reduced, alkylated, and trypsin digested. Samples were then prepared for Tandem Mass Tag (TMT) 10plex labeling. A bicinchoninic acid (BCA) assay was performed on each sample to quantify the total protein in each sample, which is important to confirm equal amounts of each sample are added to the multiplex sample. Each peptide in a sample was given a unique, low molecular weight (typically 126-130 Da), and then the samples were combined.
Each multiplexed sample was then fractionated to increase the overall protein coverage using high pH reversed phase fractionation and analyzed by LC/MS using a Dionex UltiMate 3000 RSLC in tandem with a Q-Exactive/Lumos Orbitrap Mass Spectrometer. The chromatography was performed using a 2-hour gradient on a Thermo Pepmap C18 column (100 Å pore size, 3.0 μm particle size, […]) set at 50° C. Mobile phase A was water with 0.1% formic acid, and mobile phase B was acetonitrile with 0.1% formic acid.
A bioinformatic package was applied to all the mass spectrometry intensity data known as Differential Enrichment analysis of Proteomics data (DEP) to process proteomic data (FIGS. 35-37).

brain endothelial cells = assay: IL-6 provoked-inflammation cell culture, proteomics; conditions: brain endothelial cells provoked with IL-6
Description: (§1) FIG. 34B presents results from a provoked-inflammation cell-culture study with proteomics outcomes, wherein endothelial cells from various tissues were exposed to the inflammatory cytokine IL-6 in the absence or presence of EPA. […] Also of interest are related increases in proteins involved in the related antioxidant ferritin in vascular endothelial cells. Finally fatty acid desaturase 1 (FADS1) encodes the Δ5-desaturase enzyme and fatty acid desaturase 2 (FADS2) encodes the […] enzyme.
(§2) In a series of tissue culture experiments cells were provoked with IL-6 to induce an inflammatory and cellular injury response, and EPA added to determine whether it moderated proteins involved in injury responses. […] Thus, the proteomics results not only affirm the ability of EPA to promote HO-1, but also confirm the ability of EPA to inhibit […], corroborating the aforementioned ability of EtEPA to suppress the Δ5-desaturase index, for example.

[2] = system: pulmonary endothelial cells; assay: as above; conditions: pulmonary endothelial cells provoked with IL-6
Description: as §1, §2

[3] = system: vascular endothelial cells; assay: as above; conditions: vascular endothelial cells provoked with IL-6
Description: as §1, §2

[4] = system: Primary human lung microvascular endothelial cells (HMVEC-Ls, PECs); assay: LC/MS proteomics of pulmonary endothelial cells exposed to air pollution particulate matter
Procedure: Primary human lung microvascular endothelial cells (HMVEC-Ls, PECs) were purchased from Lonza (Manassas, VA). Cells were cultured in complete endothelial cell growth medium and maintained at 37° C. in a 95% air/5% CO2 humidified incubator. Cells were supplied with fresh medium every other day and propagated by an enzymatic (trypsin) procedure. Cell culture medium also contained 2% FBS to facilitate fatty acid treatment.
EPA was purchased from Sigma-Aldrich (Saint Louis, MO) and solubilized in redistilled ethanol under nitrogen atmosphere and stored at −20° C.
Urban air particulate matter and fine particulate matter were purchased from Sigma-Aldrich (SRM 1648a), catalog #: NIST1648a3110 and NIST27863110. The mean particle diameters were 5.85 and 2.8 μm, respectively.
PECs were pre-treated with EPA (40 μM) for 2 hours in 2% FBS-containing medium and then challenged with urban particulate matter (50 μg/mL) for 2 hours. After 2 hours, media was washed out and HBSS buffer was added. After incubation, cells were pelleted and frozen at −80° C. until proteomic analysis was performed. Relative protein expression levels among the various treatments were measured using LC/MS proteomic techniques (FIG. 40).
Cell pellets were lysed using methanol/chloroform extraction. Proteins were then denatured, reduced, alkylated, and trypsin digested. Samples were labeled by Tandem Mass Tag (TMT) 10plex labeling to multiplex the samples and ensure that the injection, LC, and MS conditions are identical for each sample. A bicinchoninic acid (BCA) assay was performed to quantify the total protein in each sample. Each peptide in a sample was given a unique, low molecular weight (typically 126-130 Da), and then the samples were combined.
Each multiplexed sample was then fractionated to increase the overall protein coverage using high pH reversed phase fractionation and analyzed by LC/MS using a Dionex UltiMate 3000 RSLC in tandem with a Q-Exactive/Lumos Orbitrap Mass Spectrometer.
A ComBat function was applied to all mass spectrometry intensity data to correct for batch effects. The bioinformatic package Differential Enrichment analysis of Proteomics data (DEP) was used to process proteomic data and generate the figures.

[5] = 10 μM for 2 hours, then IL-6 (12 ng/mL) 24 h, vs IL-6 alone

Compound: CC/C=C\C/C=C\C/C=C\C/C=C\C/C=C\C/C=C\CCC(=O)O [DHA, docosahexaenoic acid]
- GSR protein change [1, 5]: 1.2-fold increase,
- PRDX1 protein change [1, 5]: 1.1-fold increase,
- PRDX3 protein change [1, 5]: 1.1-fold increase,
- PRDX4 protein change [1, 5]: 1.5-fold increase
- PRDX5 protein change [1, 5]: 1.1-fold increase,
- PRDX6 protein change [1, 5]: 1.3-fold decrease
- TXN protein change [1, 5]: 1.2-fold increase,
- number of proteins whose expression was significantly repressed [1]: 767 proteins
- number of proteins whose expression was significantly stimulated [1]: 864 proteins

Compound: CC/C=C\C/C=C\C/C=C\C/C=C\C/C=C\CCCC(=O)O [EPA, eicosapentaenoic acid]
- HO-1 protein, EPA+IL-6 vs IL-6 alone (brain endothelial cells): 1.5 fold
- HO-1 protein, EPA+IL-6 vs IL-6 alone [2]: 1.9 fold
- HO-1 protein, EPA+IL-6 vs IL-6 alone [3]: 2.2 fold
- DDAH-1 protein change [1, 5]: 1.1-fold increase,
- DDAH-2 protein change [1, 5]: 1.1-fold increase,
- GSR protein change [1, 5]: 1.1-fold increase,
- PRDX1 protein change [1, 5]: 1.1-fold increase,
- PRDX2 protein change [1, 5]: 1.1-fold increase,
- PRDX5 protein change [1, 5]: 1.1-fold increase,
- TXN protein change [1, 5]: 1.2-fold increase,
- number of proteins whose expression was significantly repressed [1]: 472 proteins
- number of proteins whose expression was significantly stimulated [1]: 544 proteins
- number of proteins with significantly modulated expression ([4]; EPA (40 μM) relative to fine PMs): 205 proteins
- number of proteins with significantly modulated expression ([4]; EPA (40 μM) relative to urban PMs): 347 proteins
- # of Proteins Decreased Expression by Treatment, Neutrophil Degranulation Pathway (GO: 0043312) ([4]; Fine PM vs EPA + Fine PM): 11
- # of Proteins Increased Expression by Treatment, Neutrophil Degranulation Pathway (GO: 0043312) ([4]; Fine PM vs EPA + Fine PM): 11
- # of Proteins Decreased Expression by Treatment, Neutrophil Degranulation Pathway (GO: 0043312) ([4]; Urban PM vs EPA + Urban PM): 19
- # of Proteins Increased Expression by Treatment, Neutrophil Degranulation Pathway (GO: 0043312) ([4]; Urban PM vs EPA + Urban PM): 16
- number of proteins associated with neutrophil degranulation modulated by EPA treatment ([4]; compared to fine PMs): 22 proteins
- number of proteins associated with neutrophil degranulation modulated by EPA treatment ([4]; compared to urban PMs): 35 proteins
